Earlier results, collected in patent publication US6994864B2, “Composition containing 7-hydroxy DHEA and/or 7-keto DHEA and at least a carotenoid” (L'Oreal, priority 2000, dated 2006).

Assays:
skin of rats = details: on rats

## C[C@]12CC[C@H](O)CC1=C[C@@H](O)[C@@H]1[C@@H]2CC[C@]2(C)C(=O)CC[C@@H]12 [7α-hydroxy-DHEA]
fibroblasts
  proliferation of the fibroblasts: increase
Human keratinocytes
  viability of the human keratinocytes: increase
Skin of rats
  elastin and collagen content of the skin: increased
  thickness of the dermis: increased
